Reference: patent US12655116B2, “Substituted isophthalic acid diamides” (Bayer Aktiengesellschaft, priority 2020, dated 2026)

How the values were obtained:
[1] = system: ECHCG; experiment: Pre-emergence herbicidal action against ECHCG; assay type: in vivo, Echinochloa crus-galli; settings: 80 g/ha
Method in brief: (§1)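 Sandy loam pots, seeds covered with soil, then surface-treated with WP or EC formulations at 600–800 l/ha water plus 0.2% wetting agent. Greenhouse, 3 weeks. Percent damage vs untreated controls.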

[2] = system: STEME; experiment: Pre-emergence herbicidal action against STEME; assay type: in vivo, Stellaria media
Method in brief: as §1

[3] = system: VERPE; experiment: Post-emergence herbicidal action against VERPE; assay type: in vivo, Veronica persica; settings: 20 g/ha
Method in brief: (§2)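 Herbicidal action is a visual percentage rating (0% = as untreated control, 100% = plants dead) made roughly 3 weeks after treatment. Plants were grown in sandy loam in the greenhouse and treated at the one-leaf stage, 2 to 3 weeks post-sowing. Treatment was a foliar spray of wettable-powder or emulsion-concentrate formulations at 600 to 800 l/ha water plus 0.2% wetting agent.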

[4] = system: ALOMY; experiment: Pre-emergence herbicidal action against ALOMY; assay type: in vivo, Alopecurus myosuroides; settings: 80 g/ha, pre-emergence, scored visually after 3 weeks vs untreated controls (100% = plants have died, 0% = like control plants)
Method in brief: as §1

[5] = system: ABUTH; experiment: Post-emergence herbicidal action against ABUTH; assay type: in vivo, Abutilon theophrasti; settings: visual assessment about 3 weeks after treatment vs untreated controls
Method in brief: as §2

[6] = system: AMARE; experiment: Pre-emergence herbicidal action against AMARE; assay type: in vivo, Amaranthus retroflexus
Method in brief: as §1

[7] = system: VIOTR; experiment: Post-emergence herbicidal action against VIOTR; assay type: in vivo, Viola tricolor; settings: 20 g/ha
Method in brief: as §2

[8] = system: STEME; experiment: Post-emergence herbicidal action against STEME; assay type: in vivo, Stellaria media; settings: 20 g/ha
Method in brief: as §2

[9] = system: MATIN; experiment: Post-emergence herbicidal action against MATIN; assay type: in vivo, Matricaria inodora; settings: dosage 20 g/ha
Method in brief: as §2

[10] = system: DIGSA; experiment: Pre-emergence herbicidal action against DIGSA; assay type: in vivo, Digitaria sanguinalis
Method in brief: as §1

[11] = system: AVEFA; experiment: Pre-emergence herbicidal action against AVEFA; assay type: in vivo, Avena fatua; settings: 80 g/ha, pre-emergence
Method in brief: as §1

[12] = system: VERPE; experiment: Pre-emergence herbicidal action against VERPE; assay type: in vivo, Veronica persica; settings: dosage 80 g/ha
Method in brief: as §1

[13] = system: AMARE; experiment: Post-emergence herbicidal action against AMARE; assay type: in vivo, Amaranthus retroflexus; settings: 20 g/ha, visual assessment about 3 weeks after treatment, 100% = plants have died, 0% = like control plants
Method in brief: as §2

[14] = system: VIOTR; experiment: Pre-emergence herbicidal action against VIOTR; assay type: in vivo, Viola tricolor
Method in brief: as §1

[15] = system: PHBPU; experiment: Pre-emergence herbicidal action against PHBPU; assay type: in vivo, Pharbitis purpurea; settings: dosage 80 g/ha
Method in brief: as §1

[16] = system: ABUTH; experiment: Pre-emergence herbicidal action against ABUTH; assay type: in vivo, Abutilon theophrasti; settings: for Pre-emergence action against ABUTH (herbicidal activity): 80 g/ha, scored visually after 3 weeks vs untreated controls (100% = plants have died, 0% = like control plants); for Pre-emergence action against ABUTH (herbicidal activity in percent): dosage 20 g/ha, scored visually after 3 weeks vs untreated controls, 100% = plants have died, 0% = like control plants
Method in brief: as §1

[17] = system: AVEFA; experiment: Post-emergence herbicidal action against AVEFA; assay type: in vivo, Avena fatua; settings: 20 g/ha, visual assessment about 3 weeks after treatment, 100% = plants have died, 0% = like control plants
Method in brief: as §2

[18] = system: HORMU; experiment: Pre-emergence herbicidal action against HORMU; assay type: in vivo, Hordeum murinum; settings: 80 g/ha, pre-emergence
Description: Seeds of monocotyledonous and dicotyledonous weed plants and crop plants are laid out in sandy loam soil in wood-fiber pots and covered with soil. The compounds of the invention, formulated in the form of wettable powders (WP) or as emulsion concentrates (EC), are then applied to the surface of the covering soil in the form of an aqueous suspension or emulsion at a water application rate equivalent to 600 to 800 l/ha, with addition of 0.2% wetting agent. After the treatment, the pots are placed in a greenhouse and kept under good growth conditions for the trial plants. The damage to the test plants is scored visually after a test period of 3 weeks by comparison with untreated controls (herbicidal activity in percent (%): 100% activity=the plants have died, 0% activity=like control plants). […] The tables below illustrate, in an illustrative manner, the post-emergence herbicidal action of the compounds of the invention, the herbicidal activity being stated in percent.

[19] = system: MATIN; experiment: Pre-emergence herbicidal action against MATIN; assay type: in vivo, Matricaria inodora
Method in brief: as §1

[20] = system: POLCO; experiment: Pre-emergence herbicidal action against POLCO; assay type: in vivo, Polygonum convolvulus; settings: dosage 80 g/ha
Method in brief: as §1

[21] = system: DIGSA; experiment: Post-emergence herbicidal action against DIGSA; assay type: in vivo, Digitaria sanguinalis
Method in brief: as §2

[22] = system: ECHCG; experiment: Post-emergence herbicidal action against ECHCG; assay type: in vivo, Echinochloa crus-galli
Method in brief: as §2

[23] = system: PHBPU; experiment: Post-emergence herbicidal action against PHBPU; assay type: in vivo, Pharbitis purpurea; settings: dosage 20 g/ha
Method in brief: as §2

[24] = system: ALOMY; experiment: Post-emergence herbicidal action against ALOMY; assay type: in vivo, Alopecurus myosuroides; settings: dosage 20 g/ha, visual assessment about 3 weeks after treatment vs untreated controls
Method in brief: as §2

[25] = system: SETVI; experiment: Pre-emergence herbicidal action against SETVI; assay type: in vivo, Setaria viridis; settings: dosage 80 g/ha
Method in brief: as §1

[26] = 20 g/ha, scored visually after 3 weeks vs untreated controls, 100% = plants have died, 0% = like control plants
[27] = 80 g/ha, scored visually after 3 weeks vs untreated controls (100% = plants have died, 0% = like control plants)

SMILES | Pre-emergence action against ECHCG in % [1] [%] | Pre-emergence action against STEME in % ([2]; dosage 80 g/ha) [%] | Pre-emergence action against ALOMY (herbicidal activity) [4] [%] | Post-emergence action against ABUTH in % ([5]; dosage 5 g/ha) [%] | Post-emergence action against ABUTH in % ([5]; dosage 20 g/ha) [%] | Pre-emergence action against AMARE in % [6, 26] [%] | Pre-emergence action against AMARE in % [6, 27] [%] | Post-emergence action against STEME in % [8] [%] | Post-emergence action against MATIN in % [9] [%] | Pre-emergence action against DIGSA in % ([10]; dosage 20 g/ha) [%] | Pre-emergence action against DIGSA in % ([10]; dosage 80 g/ha) [%] | Pre-emergence action against AVEFA in % [11] [%] | Post-emergence action at 20 g/ha against AMARE in % [13] [%] | Pre-emergence action against VIOTR in % ([14]; dosage 80 g/ha) [%] | Pre-emergence action against ABUTH (herbicidal activity) [16] [%] | Pre-emergence action against ABUTH (herbicidal activity in percent) [16] [%] | Pre-emergence action against HORMU in % [18] [%] | Pre-emergence action against MATIN in % ([19]; dosage 80 g/ha) [%] | other results
CCCn1nnnc1NC(=O)c1ccc(C(F)(F)F)c(C(=O)NC(C)=O)c1Cl [Example 3-337] | 90 | 100 | 100 | 80 | 80 | 100 | 100 | 100 | 80 | 90 | 100 | 100 | 100 | 100 | 100 | 100 | 100 | 100 | Post-emergence action against VERPE in % [3]: 90%; Post-emergence action against VIOTR in % [7]: 100%; Pre-emergence action against VERPE in % [12]: 100%; Pre-emergence action against VIOTR in % ([14]; dosage 20 g/ha): 100%; Pre-emergence action against PHBPU in % [15]: 90%; Post-emergence action at 20 g/ha against AVEFA in % [17]: 80%
CCNC(=O)c1c(C(F)(F)F)ccc(C(=O)Nc2nnc(C)o2)c1Br [Example 6-159] | 100 | 100 | 80 | 90 | 100 | 100 | 100 | 90 | 90 | 90 | 100 | 90 | 100 | 100 | 100 | 100 | 80 | 100 | Pre-emergence action against STEME in % ([2]; dosage 20 g/ha): 80%; Pre-emergence action against POLCO in % [20]: 80%; Post-emergence action against DIGSA in % ([21]; 5 g/ha): 80%; Post-emergence action against DIGSA ([21]; 20 g/ha): 90%; Post-emergence action against ECHCG in % ([22]; dosage 5 g/ha): 80%; Post-emergence action against ECHCG in % ([22]; dosage 20 g/ha): 90%; Post-emergence action against PHBPU in % [23]: 80%; Post-emergence action against ALOMY in % [24]: 80%; Pre-emergence action against SETVI in % [25]: 100%; Pre-emergence action against MATIN in % ([19]; dosage 20 g/ha): 100%
